The values below come from patent US20050192273A1, “Therapy for psychoses combining an atypical antipsychotic and an mglu2/3 receptor agonist” (priority 2002, published 2005).

Entries after “also recorded” stand apart in the source; their conditions may differ. A value given as a limit tells only on which side of the number the result lay.

Test [1] relates to PCP-induced motor activation (ambulations). As to the kind of experiment: PCP-induced motor activation (ambulations) in rats. The class given is in vivo, rat. The note with it: PCP 5 mg/kg s.c., 60 min. The protocol: In the present experiments, studies were performed in accordance with Eli Lilly and Company animal care and use policies. Male Sprague-Dawley rats (250-300 g) were group-housed (maximum of seven rats per cage) under standard laboratory conditions with ad libitum access to food and water (12 h light/dark cycle), for at least 1 day before use.
Activity Assessment compounds were tested against PCP-induced motor activation (ambulations) in rats. Behavioral parameters were monitored in transparent, shoe-box cages that measured 45×25×20 cm, with a 1 cm depth of wood chips on the cage floor and a metal grill on top of the cage. Rectangular photocell monitors (Hamilton Kinder, Poway, Calif.) with a bank of […] (8×4 formation) surrounded each test cage. A lower rack of photocell beams was positioned 5 cm above the cage floor to enable detection of the location of the animals body, while an upper bank positioned 10 cm above the first tabulated rearing activity. Ambulations (locomotor activity) and rearing were recorded by the computer and stored for each test session as discussed in Male Sprague-Dawley rats were generally food-fasted 12-18 hours prior to the experiment. In some experiments, rats were allowed food and water ad libitum prior to the experiment. On the test day animals were placed in the test cage for a 30 min habituation period before to testing to allow for acclimation to the test cage environment. Following this habituation period, animals were administered challenges of phencyclidine (PCP) (5 mg/kg s.c.) or 0.9% NaCl vehicle (1 ml/kg) and behavioral assessment began immediately following their administration. Animals were monitored over a 60 min period in all instances. Test drugs or vehicle were administered at various pretreatment times prior to the PCP challenge.
Statistical analysis. Statistical Analysis were carried out using the GraphPad PRISM statistical/graphing package (GraphPad, SanDiego, Calif.). Data were analyzed using a one-way analysis of variance (ANOVA) and post-hoc comparisons were performed using Dunnett's multiple comparisons test.
The rats were tested 30 minutes post-injection of the test compound or vehicle. Behaviors were monitored over a 60 minute time period following S.C. injection of PCP or vehicle. Data (mean±S.E.) are presented as the total number of behaviors expressed during the timer period.

A further test concerns the target T1, human mGlu2 (Homo sapiens, UniProt Q14416).
T1 construct: expressed in transfected cells; host or cells: RGT cells (cells expressing the rat glutamate transporter)
The settings on record: decrease forskolin-stimulated cAMP, mean ± S.E.M., read-out: EC50 (nM) (Agonist Activity); cited from earlier work.

Another test deals with T2, human mGlu3 (Homo sapiens, UniProt Q14832).
T2 construct: expressed in transfected cells; host or cells: RGT cells (cells expressing the rat glutamate transporter)
T2 sequence (Q14832 23-879): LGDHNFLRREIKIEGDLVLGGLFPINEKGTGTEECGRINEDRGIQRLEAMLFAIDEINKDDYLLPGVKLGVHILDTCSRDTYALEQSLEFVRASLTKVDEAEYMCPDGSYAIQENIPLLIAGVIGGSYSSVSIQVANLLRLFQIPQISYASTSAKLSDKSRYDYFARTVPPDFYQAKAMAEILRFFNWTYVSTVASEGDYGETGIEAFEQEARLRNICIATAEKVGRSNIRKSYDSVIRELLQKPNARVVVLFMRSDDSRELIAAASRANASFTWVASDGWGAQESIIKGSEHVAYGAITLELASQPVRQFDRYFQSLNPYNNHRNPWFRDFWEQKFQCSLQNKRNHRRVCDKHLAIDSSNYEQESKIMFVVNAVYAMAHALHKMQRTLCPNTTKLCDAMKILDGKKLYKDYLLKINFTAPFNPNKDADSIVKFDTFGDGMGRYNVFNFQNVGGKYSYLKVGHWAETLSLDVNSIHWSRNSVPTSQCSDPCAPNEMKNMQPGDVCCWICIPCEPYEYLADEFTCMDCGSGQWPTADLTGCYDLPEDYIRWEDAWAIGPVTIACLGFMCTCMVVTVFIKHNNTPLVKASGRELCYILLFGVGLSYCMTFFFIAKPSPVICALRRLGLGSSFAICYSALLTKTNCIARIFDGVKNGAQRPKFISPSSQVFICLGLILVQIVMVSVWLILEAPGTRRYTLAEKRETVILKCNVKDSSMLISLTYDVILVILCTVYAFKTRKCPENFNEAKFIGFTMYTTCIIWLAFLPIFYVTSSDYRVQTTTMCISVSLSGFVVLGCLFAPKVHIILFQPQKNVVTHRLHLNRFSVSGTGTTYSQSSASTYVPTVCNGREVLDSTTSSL
The note with it: decrease forskolin-stimulated cAMP, mean ± S.E.M., read-out: EC50 (nM) (Agonist Activity); cited from earlier work.

Another test deals with T3, human mGlu4 (Homo sapiens, UniProt Q14833).
T3 construct: expressed in transfected cells; host or cells: RGT cells (cells expressing the rat glutamate transporter)
T3 sequence (Q14833 33-912): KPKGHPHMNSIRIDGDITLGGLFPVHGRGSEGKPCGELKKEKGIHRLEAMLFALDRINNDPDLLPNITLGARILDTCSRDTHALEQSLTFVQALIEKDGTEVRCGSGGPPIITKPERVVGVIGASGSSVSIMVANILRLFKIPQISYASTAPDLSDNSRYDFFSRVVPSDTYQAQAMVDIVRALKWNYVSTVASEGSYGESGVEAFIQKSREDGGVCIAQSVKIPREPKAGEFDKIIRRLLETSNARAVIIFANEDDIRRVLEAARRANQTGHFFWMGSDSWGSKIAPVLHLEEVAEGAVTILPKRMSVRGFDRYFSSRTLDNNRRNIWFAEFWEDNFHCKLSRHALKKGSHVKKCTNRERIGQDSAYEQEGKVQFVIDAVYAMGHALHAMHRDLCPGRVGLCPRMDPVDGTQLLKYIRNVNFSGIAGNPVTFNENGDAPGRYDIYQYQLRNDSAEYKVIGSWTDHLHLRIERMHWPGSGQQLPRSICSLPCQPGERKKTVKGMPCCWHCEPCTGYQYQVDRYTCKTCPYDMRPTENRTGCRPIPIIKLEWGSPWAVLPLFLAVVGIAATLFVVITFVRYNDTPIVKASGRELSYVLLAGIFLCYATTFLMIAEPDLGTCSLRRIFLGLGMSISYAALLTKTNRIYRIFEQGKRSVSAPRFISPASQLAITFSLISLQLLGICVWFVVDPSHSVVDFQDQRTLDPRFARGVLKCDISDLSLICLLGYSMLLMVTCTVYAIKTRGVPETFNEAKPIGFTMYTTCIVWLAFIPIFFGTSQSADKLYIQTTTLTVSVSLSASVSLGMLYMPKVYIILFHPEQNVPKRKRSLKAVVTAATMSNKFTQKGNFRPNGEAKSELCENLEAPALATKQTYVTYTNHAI
The settings on record: decrease forskolin-stimulated cAMP, cited from earlier work.

The target of a further test is T4, human mGlu7 (Homo sapiens, UniProt Q14831).
T4 construct: expressed in transfected cells; host or cells: RGT cells (cells expressing the rat glutamate transporter)
T4 sequence (Q14831 35-915): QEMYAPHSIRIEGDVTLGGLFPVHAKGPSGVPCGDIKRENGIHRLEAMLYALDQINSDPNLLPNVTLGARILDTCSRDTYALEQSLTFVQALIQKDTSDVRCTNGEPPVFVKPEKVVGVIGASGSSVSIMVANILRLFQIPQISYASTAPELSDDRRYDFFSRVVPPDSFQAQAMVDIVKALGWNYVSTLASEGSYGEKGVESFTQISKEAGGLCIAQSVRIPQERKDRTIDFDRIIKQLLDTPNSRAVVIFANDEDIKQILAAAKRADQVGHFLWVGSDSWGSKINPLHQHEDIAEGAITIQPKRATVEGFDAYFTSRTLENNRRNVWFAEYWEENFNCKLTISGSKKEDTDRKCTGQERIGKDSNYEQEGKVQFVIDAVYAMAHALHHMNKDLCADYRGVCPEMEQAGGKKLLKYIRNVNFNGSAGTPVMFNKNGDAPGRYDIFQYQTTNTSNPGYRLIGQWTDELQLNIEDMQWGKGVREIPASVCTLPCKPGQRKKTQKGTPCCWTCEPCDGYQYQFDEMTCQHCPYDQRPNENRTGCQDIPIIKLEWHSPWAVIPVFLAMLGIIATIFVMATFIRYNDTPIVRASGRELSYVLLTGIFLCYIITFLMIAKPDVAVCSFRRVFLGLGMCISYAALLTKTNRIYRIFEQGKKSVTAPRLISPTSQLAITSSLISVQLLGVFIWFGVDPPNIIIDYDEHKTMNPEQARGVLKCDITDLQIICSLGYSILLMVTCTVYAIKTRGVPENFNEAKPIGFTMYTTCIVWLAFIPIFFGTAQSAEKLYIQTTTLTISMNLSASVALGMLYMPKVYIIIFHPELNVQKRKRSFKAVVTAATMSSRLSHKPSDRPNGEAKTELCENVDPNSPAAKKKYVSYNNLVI
The settings on record: decrease forskolin-stimulated cAMP, cited from earlier work.

Another test deals with T5, human mGlu8 (Homo sapiens, UniProt O00222).
T5 construct: expressed in transfected cells; host or cells: RGT cells (cells expressing the rat glutamate transporter)
The settings on record: decrease forskolin-stimulated cAMP, mean ± S.E.M., read-out: EC50 (nM) (Agonist Activity); cited from earlier work.

The next test concerns the target T6, human mGlu1 (Homo sapiens, UniProt Q13255).
T6 construct: expressed in transfected cells; host or cells: RGT cells (cells expressing the rat glutamate transporter)
The note with it: increase PI hydrolysis, cited from earlier work.

A further test addresses T7, human mGlu5 (Homo sapiens, UniProt P41594).
T7 construct: expressed in transfected cells; host or cells: RGT cells (cells expressing the rat glutamate transporter)
The settings on record: increase PI hydrolysis, cited from earlier work.

Setting [2] is: read-out: EC50 (nM) (Agonist Activity).
[3] abbreviates: read-out: IC50 (nM) (Antagonist Activity).

T7 sequence (P41594 21-1180 isoform P41594-2 limits assumed): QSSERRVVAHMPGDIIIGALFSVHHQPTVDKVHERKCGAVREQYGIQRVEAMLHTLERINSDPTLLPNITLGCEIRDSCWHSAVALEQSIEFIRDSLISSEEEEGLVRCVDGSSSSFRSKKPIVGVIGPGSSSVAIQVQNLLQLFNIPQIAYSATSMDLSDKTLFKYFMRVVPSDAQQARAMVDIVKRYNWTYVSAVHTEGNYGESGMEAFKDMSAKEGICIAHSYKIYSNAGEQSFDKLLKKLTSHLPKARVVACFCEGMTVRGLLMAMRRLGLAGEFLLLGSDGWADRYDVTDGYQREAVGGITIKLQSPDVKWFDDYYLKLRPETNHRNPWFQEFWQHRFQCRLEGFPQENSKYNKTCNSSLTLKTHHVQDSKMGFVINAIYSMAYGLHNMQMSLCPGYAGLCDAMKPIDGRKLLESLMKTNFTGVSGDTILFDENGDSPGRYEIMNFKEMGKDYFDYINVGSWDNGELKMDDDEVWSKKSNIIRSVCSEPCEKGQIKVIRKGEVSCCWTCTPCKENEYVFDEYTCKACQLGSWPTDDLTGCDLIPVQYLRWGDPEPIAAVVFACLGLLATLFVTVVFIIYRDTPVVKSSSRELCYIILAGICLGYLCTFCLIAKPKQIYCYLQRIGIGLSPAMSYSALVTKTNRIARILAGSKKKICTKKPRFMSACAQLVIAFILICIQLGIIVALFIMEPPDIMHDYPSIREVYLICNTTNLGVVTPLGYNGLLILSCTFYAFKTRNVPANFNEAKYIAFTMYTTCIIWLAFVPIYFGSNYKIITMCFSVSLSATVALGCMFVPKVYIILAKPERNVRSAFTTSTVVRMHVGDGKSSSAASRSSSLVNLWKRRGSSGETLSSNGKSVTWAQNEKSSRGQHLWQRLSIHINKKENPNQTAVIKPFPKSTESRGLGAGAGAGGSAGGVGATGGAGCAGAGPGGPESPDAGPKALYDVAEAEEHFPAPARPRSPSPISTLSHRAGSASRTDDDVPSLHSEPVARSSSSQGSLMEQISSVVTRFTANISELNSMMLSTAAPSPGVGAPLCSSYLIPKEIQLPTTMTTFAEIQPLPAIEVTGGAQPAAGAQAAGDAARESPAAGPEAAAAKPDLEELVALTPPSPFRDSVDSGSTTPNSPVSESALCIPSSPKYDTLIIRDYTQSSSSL
T6 sequence (Q13255 19-1194): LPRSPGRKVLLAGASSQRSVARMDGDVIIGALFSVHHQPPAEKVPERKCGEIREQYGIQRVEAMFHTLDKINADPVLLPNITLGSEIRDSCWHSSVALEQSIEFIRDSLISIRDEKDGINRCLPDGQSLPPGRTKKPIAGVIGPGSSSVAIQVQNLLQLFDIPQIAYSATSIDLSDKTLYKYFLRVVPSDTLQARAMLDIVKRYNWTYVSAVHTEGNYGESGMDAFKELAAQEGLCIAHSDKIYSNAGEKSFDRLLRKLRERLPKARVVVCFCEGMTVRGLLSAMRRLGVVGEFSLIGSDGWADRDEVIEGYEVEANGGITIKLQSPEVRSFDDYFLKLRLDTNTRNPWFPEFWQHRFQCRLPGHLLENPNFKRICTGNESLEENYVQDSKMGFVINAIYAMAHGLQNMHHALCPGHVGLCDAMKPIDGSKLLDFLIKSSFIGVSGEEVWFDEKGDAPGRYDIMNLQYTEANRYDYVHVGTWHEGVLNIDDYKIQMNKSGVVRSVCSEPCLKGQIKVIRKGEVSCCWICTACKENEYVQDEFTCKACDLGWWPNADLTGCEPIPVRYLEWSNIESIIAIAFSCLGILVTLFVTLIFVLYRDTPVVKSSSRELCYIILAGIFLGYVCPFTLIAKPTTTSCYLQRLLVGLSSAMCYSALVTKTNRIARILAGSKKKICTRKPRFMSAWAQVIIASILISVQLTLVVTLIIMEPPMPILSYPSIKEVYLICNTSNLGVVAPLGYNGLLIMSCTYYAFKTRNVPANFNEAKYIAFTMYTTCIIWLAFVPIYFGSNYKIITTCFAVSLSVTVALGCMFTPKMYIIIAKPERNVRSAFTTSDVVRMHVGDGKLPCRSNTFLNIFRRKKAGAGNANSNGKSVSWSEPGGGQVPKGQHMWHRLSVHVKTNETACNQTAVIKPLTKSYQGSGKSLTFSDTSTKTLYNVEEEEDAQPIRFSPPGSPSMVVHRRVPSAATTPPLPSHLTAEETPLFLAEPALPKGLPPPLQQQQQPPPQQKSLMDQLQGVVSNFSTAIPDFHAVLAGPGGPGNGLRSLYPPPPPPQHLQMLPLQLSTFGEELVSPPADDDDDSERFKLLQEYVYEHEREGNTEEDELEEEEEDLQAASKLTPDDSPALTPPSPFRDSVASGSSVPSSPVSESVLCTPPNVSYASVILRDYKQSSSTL

As for `NC1(C(=O)O)CCC2C(C(=O)O)C21` (single isomer, unassigned; (+)) [LY354740, (+)-2-aminobicyclo[3.1.0]hexane-2,6-dicarboxylic acid], the “effect on PCP-induced ambulations” value in test [1] (single agent 10 mg/kg) is reported as “statistically insignificant effect”. Moreover, the EC50 (in general, the concentration giving half of the maximal effect) is 5.1 ± 0.3 nM on human mGlu2; 24.3 ± 0.5 nM at human mGlu3; above 100000 nM at human mGlu4 (setting [2]); above 100000 nM at human mGlu7 (setting [2]); 36000 nM on human mGlu8; above 100000 nM at human mGlu1 (setting [2]). Further, the EC50 on human mGlu5 (setting [2]) was above 100000 nM. The IC50 at human mGlu4 (setting [3]), on human mGlu7 (setting [3]), at human mGlu1 (setting [3]) and on human mGlu5 (setting [3]) was above 100000 nM throughout.
Take `N[C@@]1(C(=O)O)CO[C@H]2[C@H](C(=O)O)[C@H]21` [LY379268, 1R,4R,5S,6R-4-amino-(2-oxabicyclo[3.1.0]hexane)-4,6-dicarboxylic acid]: in test [1] (single agent 1 mg/kg), the “effect on PCP-induced ambulations” value was “smaller and statistically insignificant effect”.
In the case of `N[C@]1(C(=O)O)C[C@H](F)[C@@H]2[C@@H](C(=O)O)[C@@H]21` [LY459477, (1S,2R,4S,5S,6S)-2-amino-4-fluorobicyclo[3.1.0]hexane-2,6-dicarboxylic acid], the “effect on PCP-induced ambulations” value in test [1] (single agent 1 mg/kg) is recorded as “relatively small impact; also recorded: statistically insignificant effect”.
As to `Cc1cc2c(s1)Nc1ccccc1N=C2N1CCN(C)CC1` [Olanzapine, 2-methyl-4-(4-methyl-1-piperazinyl)-10H-thieno[2,3-b][1,5]benzodiazepine, reference compound], in test [1] (single agent 1 mg/kg), the “effect on PCP-induced ambulations” value is recorded as “significant impact; also recorded: minimal impact”.
